According to article PMC10033419, “Blocking NS3–NS4B interaction inhibits dengue virus in non-human primates” (Nature, 2023):

Test system: DENV-2 RL strain
Assay: Survival study, lethal DENV challenge with 4G2 antibody
Format: in vivo, AG129 mice
Conditions: 2'CMC

C[C@@]1(O)[C@H](O)[C@@H](CO)O[C@H]1n1ccc(N)nc1=O [2'CMC]
% Survival (d p.i. 0): 100% | % Survival (d p.i. 1): 100% | % Survival (d p.i. 2): 100% | % Survival (d p.i. 3): 100% | % Survival (d p.i. 4): 100% | % Survival (d p.i. 5): 100% | % Survival (d p.i. 6): 100% | % Survival (d p.i. 7): 100% | % Survival (d p.i. 8): 100% | % Survival (d p.i. 9): 100% | % Survival (d p.i. 10): 100% | % Survival (d p.i. 11): 100% | % Survival (d p.i. 12): 100% | % Survival (d p.i. 13): 90% | % Survival (d p.i. 14): 80% | % Survival (d p.i. 15): 80% | % Survival (d p.i. 16): 80% | % Survival (d p.i. 17): 80% | % Survival (d p.i. 18): 60% | % Survival (d p.i. 19): 60% | % Survival (d p.i. 20): 60% | % Survival (d p.i. 21): 60% | % Survival (d p.i. 22): 60% | % Survival (d p.i. 23): 60% | % Survival (d p.i. 24): 50% | % Survival (d p.i. 25 = end of study): 50%
